Where no end group is shown, it is not given here.
Tests used:
LV-ITGA5-infected hMSCs = type: cell-based, human
Protocol: To this goal, proteins collected from hMSCs infected with LV-ITGA5 were analysed by western blot analysis.
Legend: Osteoblast differentiation by ITGA5 involves ERK1/2 signalling.

ITGA5 in hMSCs = assay: ITGA5 protein level by Western blot; type: cell-based, human; details: dexamethasone 10^-7 M
Protocol: For Western blot analysis, cells lysates were prepared as previously described (FROMIGUE et al. Cell Death Differ. 13, 1845-56, 2006). Briefly, proteins (30 μg) were resolved on 4-12% SDS-PAGE and electrotransfered onto […] membranes (Millipore Corporation, Bedford, USA). Filters were incubated at RT for 2 h in 50 mM Tris/HCl (pH 7.4), 150 mM NaCl, 0.1% (v/v) Tween-20, 0.5% (w/v) bovine serum albumin (TBST/BSA), then overnight at 4° C. on a shaker with specific primary antibodies diluted at 1/1000 in TBST/BSA: monoclonal antibody against the housekeeping gene GAPDH (Abeam Cambridge, UK), and rabbit polyclonal antibody directed against ITGA5 was Santa Cruz Biotechnology (Santa Cruz, Calif., USA). Membranes were washed twice with TBST and incubated for 2 hours with appropriate HRP-conjugated secondary antibody (1/20,000 in TBST/BSA). After final washes, the signals were visualized with enhanced chemiluminescence western blotting detection reagent (ECL, Amersham Biosciences, Piscataway, N.J., USA) and autoradiographic film (X-OMAT-AR, Eastman Kodak Company, Rochester, N.Y., USA). Densitometric analysis using ImageQuant software was performed following digital scanning (Agfa).

ITGA5 in primary hMSCs = assay: ITGA5 mRNA expression by quantitative RT-PCR; type: cell-based, human; details: dexamethasone 10^-7 M, day 1 and 3, primary hMSCs
hMSCs = assay: Osteoblast marker mRNA (Runx2, ALP, Col1A1) by quantitative RT-PCR; type: cell-based; details: CRRETAWAC 100 μg/ml, 24 h, human MSCs
Protocol: The expression of mRNA markers of the osteoblast lineage (Runx2, ALP, type 1 collagen) was evaluated by quantitative RT-PCR. Total RNAs were isolated using Trizol reagent (Laboratoires Eurobio, France) according to the manufacturer's instructions. Three μg of total RNA from each sample were reverse transcribed using MMLV reverse transcriptase and oligodT primers, at 37° C. for 90 min. The relative mRNA levels were evaluated by quantitative PCR using LightCycler Instrument (Roche Applied Science, Indianapolis Ind., USA) and SYBR Green PCR kit (ABGen, Courtabceuf, France). Triplicate reactions were carried out for each sample. Signal was normalized to 18S as internal control.

clonal F/STRO1+A cells = assay: ALP activity by staining in clonal cells; type: cell-based, human; details: coating with 100 μg/ml CRRETAWAC
Source text: F/STRO1^+A cells were derived from human fetal bone marrow stroma, selected for Stro1 antigen expression, immortalized using the large T SV40 and subsequently subcloned (OYAJOBI et al., J Bone Miner Res, 14, 351-61, 1999). This clonal human bone marrow stromal cell line express mRNA markers or protein of the osteoblast lineage (Runx2, OC, ALP, type 1 collagen), of the chondrocyte lineage (aggrecan, types 2, 9 and 10 collagen), and of the adipocyte lineage (PPARgamma2, C/EBPalpha, aP2, G3PDH, LPL, leptin) under basal conditions (AHDJOUDJ et al., J Cell Biochem, 81, 23-38, 2001).
The activity of alkaline phosphatase, an early marker of osteoblast differentiation, was determined by a colorimetric assay as previously described (FROMIGUE et al., J Cell Biochem, 104, 620-8, 2008). ALP staining was performed using Sigma FAST kit according to the manufacturer's recommendations (Sigma). Cells were fixed in 75% ethanol, rinsed in PBS and incubated with the substrate buffer at 37° C.
Legend: The synthetic cyclic peptide CRRETAWAC promotes osteoblast marker genes expression in hMSCs. A) Human MSCs were treated with CRRETAWAC at the dose of 100 μg/ml for 24 h, RNAs were collected and osteoblast markers were determined by qRT-PCR analysis. Results, after correction to 18S content, are expressed as mean±SD of treated over control ratio. […] Infection with LV-ITGA5 is shown for comparison.

N#CC(=C(/N)Sc1ccccc1N)/C(C#N)=C(\N)Sc1ccccc1N [U0126]
increased expression of ALP induced by ITGA5 overexpression (LV-ITGA5-infected hMSCs): blunted | increased expression of Col1A1 induced by ITGA5 overexpression (LV-ITGA5-infected hMSCs): blunted | increased expression of Runx2 induced by ITGA5 overexpression (LV-ITGA5-infected hMSCs): blunted

C[C@@H]1C[C@H]2[C@@H]3CCC4=CC(=O)C=C[C@]4(C)[C@@]3(F)[C@@H](O)C[C@]2(C)[C@@]1(O)C(=O)CO [dexamethasone]
increase of ITGA5 protein levels, treated over control (ITGA5 in hMSCs): about 1.5 fold | increase of ITGA5 expression (mRNA), treated over control (ITGA5 in primary hMSCs): 2-3 fold

CRRETAWAC (also: cyclic)
expression of osteoblast markers (mRNA) (hMSCs): greatly increased | ALP activity (staining) (clonal F/STRO1+A cells): increased
